Legend:
cathepsin K = target: T1, cathepsin K (Homo sapiens, UniProt P43235); experiment: Cathepsin K inhibitory activity (fluorescent substrate Z-Leu-Arg-MCA); assay type: biochemical; conditions: enzyme expressed in HEK293T; 15 min preincubation, 30 min reaction at room temperature, pH 5.5; read-out: Activity Intensity (cathepsin K inhibitory activity, pIC50 class) (converted)
T1 construct: the active enzyme was obtained as the enzyme fraction by using detergent containing lysis buffer; made in house; host or cells: HEK293T (GenHunter Corporation), transient expression; detergent lysate used as enzyme fraction
T1 sequence (P43235 115-329): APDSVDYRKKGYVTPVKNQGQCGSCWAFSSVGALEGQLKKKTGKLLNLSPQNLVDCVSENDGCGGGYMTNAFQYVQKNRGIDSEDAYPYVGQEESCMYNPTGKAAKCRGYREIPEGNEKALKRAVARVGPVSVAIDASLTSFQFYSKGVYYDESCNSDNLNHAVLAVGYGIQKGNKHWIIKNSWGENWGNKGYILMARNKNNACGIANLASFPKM
Summary of the method: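 Enzyme was HEK293T-expressed cathepsin K in pH 5.5 acetate buffer with 2 mM DTT, preincubated 15 min at room temperature with compound. Reaction started with Z-Leu-Arg-MCA (solution prepared at 10 μM), run 30 min, and AMC fluorescence read at 355/460 nm. IC50 taken from the curve of % inhibition vs DMSO.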

[1] = Metabolic stability test using human liver microsome; assay type: in vitro ADME; conditions: NADPH, 37° C., 25 minutes versus 0 minute, LC/MS peak area
Method: For the compounds synthesized according to the method of the above Examples and the compounds of formula (B) (the compounds disclosed in WO2002/070517), the metabolic stability test using the human liver microsome was performed and the residual rate of each compound was calculated.
To a human liver microsome solution (950 μL) was added a test compound solution (10 μL, 100 μM, acetonitrile solution) on an ice bath and the solution was divided into two equal parts, solution A and solution B. Note that the composition of the human liver microsome solution was as follows.
20 mg/mL protein human liver microsome (Xenotech LLC Lenexa, US): 10 μL 500 mM potassium phosphate buffer solution (pH 7.4): 200 μL 10 mM EDTA solution: 100 μL 60 mM MgCl2 solution: 50 μL 100 mM glucose-6-phosphate solution: 50 μL 100 I.U./mL glucose-6-phosphate dehydrogenase solution: 10 μL purified water: 530 μL
To the solution A (480 μL) was added acetonitrile (500 μL) on an ice bath, and then 25 mM NADPH solution (20 μL) was added. After vortexing, the mixture was centrifuged (3,000 rpm) at 4° C. for 10 minutes, and the supernatant was taken as the sample at the reaction time of 0 minute.
To the solution B (480 μL) was added 25 mM NADPH solution (20 μL). The mixture was incubated at 37° C. for 25 minutes. The reaction was quenched with acetonitrile (500 μL) and vortexing. The mixture was centrifuged (3,000 rpm) at 4° C. for 10 minutes, and the supernatant was taken as the sample at the reaction time of 25 minutes.
LC/MS measurement was performed for the samples at the reaction time of 0 minute and the reaction time of 25 minutes. Based on the peak area of the target molecular weight in the MS measurement, the residual rate of the sample at the reaction time of 25 minutes to the sample at the reaction time of 0 minute was calculated in percentage.

Structure (SMILES)	IC50 (cathepsin K) [nM]	Residual Rate at 25 minutes (%) [1] [%]
CC[C@@H](CNc1ccc(OCC(=O)O)cc1OC)NC(=O)[C@H](CC(C)(C)F)N[C@@H](c1ccccc1)C(F)(F)F [Compound 117, 2-{4-[((2S)-2-{(2S)-2-[((1S)-2,2,2-trifluoro-1-phenylethyl)amino]-4-fluoro-4-methylpentanoylamino}butyl)amino]-3-methoxyphenoxy}acetic acid]	≤ 3.16	111
COc1ccc(NC[C@H](CCS(C)(=O)=O)NC(=O)[C@H](CC(C)C)N[C@@H](c2ccc(=O)[nH]c2)C(F)(F)F)c(OC)c1 [Compound 81]	31.6 to 10000	41
CC[C@@H](CNc1ccc(N2CCC[C@@H](C(=O)O)C2)cc1)NC(=O)[C@H](CC(C)(C)F)N[C@@H](c1ccccc1)C(F)(F)F [Compound 152]	≤ 3.16	88
CC[C@@H](CNc1ccc(OCC(=O)O)cc1OC)NC(=O)[C@H](CC(C)C)N[C@@H](c1cccnc1)C(F)(F)F [Compound 121]	3.16 to 31.6	105
CC[C@@H](CNc1ccc(N2CCOCC2)cc1)NC(=O)[C@H](CC(C)C)N[C@@H](c1ccc(F)cc1)C(F)(F)F [Compound 36]	≤ 3.16	0
CC[C@@H](CNc1ccc(N2CCC(C)(C(=O)O)CC2)cc1)NC(=O)[C@H](CC(C)C)N[C@@H](c1ccccc1)C(F)(F)F [Compound 154]	≤ 3.16	74
CC(C)C[C@H](Nc1cscc1-c1ccc(N2CCNCC2)cc1)C(=O)NCCNc1ccc(OCc2ccccc2)cc1 [B, reference compound]	–	0
CC[C@@H](CNc1ccc(OCC(=O)N2CCCC2)cc1OC)NC(=O)[C@H](CC(C)(C)F)N[C@@H](c1ccccc1)C(F)(F)F [Compound 135]	≤ 3.16	–
CC[C@@H](CNc1ccc(N(C)C)cc1)NC(=O)[C@H](CC(C)(C)F)N[C@@H](c1ccc(-c2ccc(S(C)(=O)=O)cc2)cc1)C(F)(F)F [Compound 12]	≤ 3.16	–
CC[C@@H](CNc1ccc(-n2ccnc2)cc1)NC(=O)[C@H](CC(C)C)N[C@@H](c1ccccc1)C(F)(F)F [Compound 112]	31.6 to 10000	–
CC(C)C[C@H](N[C@@H](c1ccc(S(C)(=O)=O)cc1)C(F)(F)F)C(=O)N[C@@H](C)CNc1ccc(N2CCOCC2)cc1 [Compound 73]	≤ 3.16	–
CC[C@@H](CNc1ccc(OC)cc1OC)NC(=O)C1(N[C@@H](c2ccccc2)C(F)(F)F)CCCC1 [Compound 28]	31.6 to 10000	–
CC[C@@H](CNc1ccc(-n2nccc2C(=O)O)cc1)NC(=O)[C@H](CC(C)C)N[C@@H](c1ccc(OC)nc1)C(F)(F)F [Compound 144]	31.6 to 10000	–
CC[C@@H](CNc1ccc(OC)cc1OC)NC(=O)[C@@H](N[C@@H](c1ccccc1)C(F)(F)F)C1CCCCC1 [Compound 61]	31.6 to 10000	–
CC(C)(F)C[C@H](N[C@@H](c1ccccc1)C(F)(F)F)C(=O)N[C@@H](CCC#N)CNc1ccc(N2CCOCC2)cc1 [Compound 94]	≤ 3.16	–
CC[C@@H](CNc1ccc(OCC(=O)OCc2ccccc2)cc1OC)NC(=O)[C@H](CC(C)(C)F)N[C@@H](c1ccc(Br)cc1)C(F)(F)F [Compound 20, Phenylmethyl 2-{4-[((2S)-2-{(2S)-2-{[(1S)-2,2,2-trifluoro-1-(4-bromophenyl)ethyl]amino}-4-fluoro-4-methylpentanoylamino}butyl)amino]-3-methoxyphenoxy}acetate]	≤ 3.16	–
CC[C@@H](CNc1ccc(OCCS(C)(=O)=O)cc1OC)NC(=O)[C@H](CC(C)C)N[C@@H](c1ccc(=O)[nH]c1)C(F)(F)F [Compound 41]	≤ 3.16	–
CC[C@@H](CNc1ccc(OC)cc1OC)NC(=O)[C@H](CC(C)(C)C)N[C@@H](c1ccccc1)C(F)(F)F [Compound 59]	≤ 3.16	–
COc1ccc([C@H](N[C@@H](CC(C)C)C(=O)N[C@@H](C)CNc2ccc(N3CCOCC3)cc2)C(F)(F)F)cn1 [Compound 75]	≤ 3.16	–
CC[C@@H](CNc1ccc(N2CCCC2=O)cc1)NC(=O)[C@H](CC(C)C)N[C@@H](c1ccc(OC)nc1)C(F)(F)F [Compound 54]	3.16 to 31.6	–
CC[C@@H](CNc1ccc(OCC(=O)O)cc1OC)NC(=O)[C@H](CC(C)C)N[C@@H](c1ccccc1)C(F)(F)F [Compound 119]	≤ 3.16	–

Structure (SMILES)	IC50 (cathepsin K) [nM]	Residual Rate at 25 minutes (%) [1] [%]
CC[C@@H](CNc1ccc(OCCCCC(=O)O)cc1OC)NC(=O)[C@H](CC(C)C)N[C@@H](c1ccccc1)C(F)(F)F [Compound 156]	≤ 3.16	–
CC[C@@H](CNc1ccc(OC(C)(C)C(=O)O)cc1OC)NC(=O)[C@H](CC(C)(C)F)N[C@@H](Cc1ccccc1)C(F)(F)F [Compound 132, 2-(4-{[(2S)-2-((2S)-2-{[(1S)-2,2,2-trifluoro-1-benzylethyl]amino}-4-fluoro-4-methylpentanoylamino)butyl]amino}-3-methoxyphenoxy)-2-methylpropanoic acid]	3.16 to 31.6	–
CC[C@@H](CNc1ccc(-n2cccn2)cc1)NC(=O)[C@H](CC(C)C)N[C@@H](c1ccccc1)C(F)(F)F [Compound 47]	31.6 to 10000	–
CC[C@@H](CNc1ccc(OCC(=O)N(C)OC)cc1OC)NC(=O)[C@H](CC(C)C)N[C@@H](c1ccccc1)C(F)(F)F [Compound 89]	≤ 3.16	–
CC[C@@H](CNc1ccc(OC)cc1OC)NC(=O)C1(NC(c2ccccc2)C(F)(F)F)CCCCC1 (stereo partly drawn) [Compound 8, N-((1S)-1-{[(2,4-dimethoxyphenyl)amino]methyl}propyl){[(2,2,2-trifluoro-1-phenylethyl)amino]cyclohexyl}carboxamide]	3.16 to 31.6	–
CC(C)C[C@H](N[C@@H](c1ccccc1)C(F)(F)F)C(=O)N[C@H](CNc1ccc(N2CCOCC2)cc1)CC(=O)OCc1ccccc1 [Compound 69]	≤ 3.16	–
CC[C@@H](CNc1ccc(OCC(=O)N(C)C)cc1OC)NC(=O)[C@H](CC(C)(C)F)N[C@@H](c1ccccc1)C(F)(F)F [Compound 134]	≤ 3.16	–
CC[C@@H](CNc1ccc(N2CCOCC2)cc1)NC(=O)[C@H](CC(C)C)N[C@@H](c1ccc(OCCOC)cc1)C(F)(F)F [Compound 30]	≤ 3.16	–
CC[C@@H](CNc1ccccc1N1CCOCC1)NC(=O)[C@H](CC(C)C)N[C@@H](c1ccccc1)C(F)(F)F [Compound 88]	31.6 to 10000	–
CC(C)C[C@H](N[C@@H](c1ccccc1)C(F)(F)F)C(=O)N[C@@H](CCOCc1ccccc1)CNc1ccc(N2CCOCC2)cc1 [Compound 87]	≤ 3.16	–
COc1ccc(NC[C@H](C)NC(=O)[C@H](CC(C)C)N[C@@H](c2cccnc2)C(F)(F)F)c(OC)c1 [Compound 78]	3.16 to 31.6	–
CC[C@@H](CNc1ccc(N2CCOCC2)cc1)NC(=O)[C@H](CC(C)C)N[C@@H](c1ccc(O)cc1)C(F)(F)F [Compound 158, (2S)—N-((1S)-1-{[(4-morpholin-4-ylphenyl)amino]methyl}propyl)-2-{[(1S)-2,2,2-trifluoro-1-(4-hydroxyphenyl)ethyl]amino}-4-methylpentanamide]	≤ 3.16	–
CCOC(=O)C1(C(C)C)CCN(c2ccc(NC[C@H](CC)NC(=O)[C@H](CC(C)C)N[C@@H](c3ccccc3)C(F)(F)F)cc2)CC1 [Compound 109]	≤ 3.16	–
CC[C@@H](CNc1ccc(N2CCC(O)CC2)cc1)NC(=O)[C@H](CC(C)C)N[C@@H](c1ccccc1)C(F)(F)F [Compound 108]	≤ 3.16	–
CC[C@@H](CNc1ccc(N2CCOCC2)cc1)NC(=O)[C@H](CC(C)C)N[C@@H](c1ccc(S(C)(=O)=O)cc1)C(F)(F)F [Compound 24]	≤ 3.16	–
CC[C@@H](CNc1ccc(N2CCSCC2)cc1OC)NC(=O)[C@H](CC(C)(C)F)N[C@@H](c1ccc(Br)cc1)C(F)(F)F [Compound 17]	≤ 3.16	–
CC[C@@H](CNc1ccc(OCC(F)(F)F)cc1)NC(=O)[C@H](CC(C)C)N[C@@H](c1ccccc1)C(F)(F)F [Compound 90]	31.6 to 10000	–
CC[C@@H](CNc1ccc2c(c1)OCO2)NC(=O)[C@H](CC(C)C)N[C@@H](c1ccccc1)C(F)(F)F [Compound 99]	31.6 to 10000	–
CC[C@@H](CNc1ccc(OCCS(C)(=O)=O)cc1OC)NC(=O)[C@H](CC(C)C)N[C@@H](c1ccc(S(C)(=O)=O)cc1)C(F)(F)F [Compound 40]	3.16 to 31.6	–
CC[C@H](N[C@@H](CC(C)C)C(=O)N[C@@H](CCS(C)(=O)=O)CNc1ccc(OC)cc1OC)C(F)(F)F [Compound 116]	31.6 to 10000	–

From patent US20090291945A1, “CYSTEINE PROTEASE INHIBITORS” (Teijin Pharma Limited, priority 2008, published 2009)
